Reference: patent US10426775B2, “Methods for treating Friedreich's ataxia with etravirine” (Fratagene Therapeutics srl, priority 2017, dated 2019)

Legend:
frataxin [1] = experiment: Western blot of frataxin in lymphoblastoid cell lines derived from FRDA patients; format: cell-based, human
Procedure: Lymphoblastoid cell lines from one healthy subject [GM16215] and 7 FRDA patients [GM16228, GM16203, GM16214, GM16223, GM16210, GM16205, GM16216], and primary fibroblasts from 2 FRDA patients [GM02816 and GM04078], were obtained from NIGMS Human Genetic Cell Repository, Coriell Institute for Medical Research (Camden, N.J., USA). Lymphoblasts and fibroblasts were grown at 37° C. and 5% CO2 and were respectively cultured in RPMI or DMEM, supplemented with 15% FBS, […] penicillin/streptomycin and 2 mM L-glutamine.
For the validation steps, etravirine (TMC125) was purchased from Selleckchem and was dissolved in DMSO at a stock concentration of 10 mM. HEK-293 Flp-In cells, stably overexpressing frataxin, were treated with the drug (or only DMSO) for 24 hours at final concentration of 10 μM. FRDA cells were treated with different concentration of etravirine. For all drug (and no drug) treatments, the final concentration of DMSO in the cell culture medium was 0.1%.
Total cell extracts were prepared in lysis buffer (50 mM Tris-HCl, pH 7.5, 150 mM NaCl, 1% Igepal CA-630, 5 mM EDTA, 5 mM EGTA) supplemented with complete protease inhibitor cocktail (Roche Diagnostics, Indianapolis, Ind., USA). Lysates were clarified by centrifugation and supernatants were mixed with 4× Laemmli sample buffer (50 mM Tris pH 6.8, 2% SDS, 10% gliycerol, 0.0025% bromophenol blue, 5% beta-mercaptoethanol), boiled for 5 min, resolved by precast 12% SDS-PAGE gels (Bio-Rad Laboratories, Hercules, Calif., USA) and transferred to […] nitrocellulose membrane (TRANS-BLOT® TURBO™ Transfer pack, Bio-Rad). Membranes were blocked with 5% non-fat dry milk, 0.1% Tween 20 in phosphate-buffered saline (PBS) and incubated with the indicated primary and secondary antibodies. The immunoreactive bands were detected by ECL (GE Healthcare, Chalfont St. Giles, UK) and imaged with a ChemiDoc XRS system (Bio-Rad). Densitometry analysis was performed using the ImageLab 4.1 Software (Bio-Rad). To analyse the western blot densitometry results, a Student's t test was applied. All values are expressed as means±1 S.E.M.
In order to evaluate whether the precursor that readily accumulates upon etravirine treatment can be converted into the mature functional form of frataxin, we tested the effect of different doses of etravirine, ranging from 100 nM to 10 μM, on a lymphoblastoid cell line, GM16203, derived from an FRDA patient. The cells were treated with the indicated doses of etravirine for 24 hours. Cell extracts were resolved on SDS-PAGE and analyzed by western blot analysis with anti-frataxin and anti-tubulin, as a loading control. We tested different doses, ranging from 100 nM to 3 μM, on the lymphoblastoid cell line GM16203.
A) FRDA lymphoblast cells, GM16203, were treated with the indicated doses of etravirine for 24 hours. Cell extracts were resolved on SDS-PAGE and analyzed by western blot analysis with anti-frataxin (lower panel) and anti-tubulin (upper panel), as a loading control. Int: intermediate frataxin; mat: mature frataxin; tub: tubulin. B) The graph represents the relative mature frataxin levels measured by densitometric analysis of independent blots and normalized with tubulin levels. Data represent the average of three independent experiments±S.E.M. p-values were calculated with Student's t-test (*p<0.05; **p<0.01)
We chose the minimal effective dose (300 nM) to evaluate the efficacy of etravirine over a broad range of cells derived from FRDA patients. In particular, we analysed 7 lymphoblastoid cell lines derived from FRDA patients and primary fibroblasts derived from two different FRDA patients. Each cell line was treated with 300 nM etravirine for 24 hours. Cell extracts were resolved on SDS-PAGE and analyzed by western blot analysis with anti-frataxin and anti-tubulin, as a loading control. Etravirine promotes increase in intermediate and mature frataxin levels in all the cell lines tested upon 24 hours of treatment (FIGS. 3A-3B). […]

frataxin [2] = experiment: as above; format: cell-based, human; conditions: GM16214, 500 nM etravirine, 24 and 48 hours, compared with GM16215

For `Cc1cc(C#N)cc(C)c1Oc1nc(Nc2ccc(C#N)cc2)nc(N)c1Br` [etravirine], the frataxin precursor accumulation (frataxin [1]; FRDA lymphoblast cell line GM16203, 10 μM etravirine) was “can also be detected”, the “average fold increase in mature frataxin levels” value (“average fold increase” for short) (frataxin [1]; GM16203 lymphoblasts (830 GAA repeats), 300 nM etravirine, 24 hours) was 1.41 fold and the “minimal effective dose (sufficient for a significant increase in intermediate and mature frataxin forms)” value (frataxin [1]; GM16203 lymphoblasts, 24 hours, doses 100 nM to 10 μM) was 300 nM. For the same molecule, the “frataxin form induced at the highest dose” value (frataxin [1]; GM16203 lymphoblasts, 24 hours, etravirine at 10 (μM)) was “mostly induces precursor accumulation”, the “average fold increase” value (frataxin [1]; GM16205 lymphoblasts (530 GAA repeats), 300 nM etravirine, 24 hours) was 1.58 fold and the “average fold increase” value (frataxin [1]; GM16210 lymphoblasts (580 GAA repeats), 300 nM etravirine, 24 hours) was 1.22 fold. For the same molecule, the “average fold increase” value (frataxin [1]; GM16214 lymphoblasts (700 GAA repeats), 300 nM etravirine, 24 hours) was 1.71 fold, the “frataxin accumulation in treated patient cells vs unaffected carrier cells” value (frataxin [1]; GM16214 treated vs GM16215 untreated, 24 hours, 300 nM etravirine) was “comparable to frataxin levels in untreated cells derived from healthy control” and the “average fold increase” value (frataxin [1]; GM16216 lymphoblasts (500 GAA repeats), 300 nM etravirine, 24 hours) was 1.21 fold. The “average fold increase” value (frataxin [1]; GM16223 lymphoblasts (630 GAA repeats), 300 nM etravirine, 24 hours) was 1.22 fold, the “average fold increase” value (frataxin [1]; GM16228 lymphoblasts (840 GAA repeats), 300 nM etravirine, 24 hours) was 1.62 fold and the “overall increase in mature frataxin levels in cells derived from FRDA patients” value (frataxin [1]; all FRDA lymphoblastoid lines and fibroblasts tested, 300 nM etravirine, 24 hours) was 50%. The “frataxin levels in FRDA cells during etravirine treatment” value (frataxin [2]) was “increase over time”.
